Measured values from ChEMBL document CHEMBL1142978, “Probing the anticancer activity of nucleoside analogues: a QSAR model approach using an internally consistent training set” (J Med Chem, 2007).

Assay: Cytotoxicity against mouse L1210/0 cells after 48 hrs
Type: cell-based
Conditions: Mus musculus, L1210/0, 48 h

Row | SMILES | IC50
1 | Cc1cn([C@@H]2O[C@H](CO)[C@@H](O)[C@@H]2O)c(=O)[nH]c1=O | 24.4 µM
2 | C=C(Cl)c1cn([C@H]2C[C@H](O)[C@@H](CO)O2)c(=O)[nH]c1=O | 1.66 µM
3 | O=C1OC(C(O)Cn2cc(C(F)(F)F)c(=O)[nH]c2=O)C(OCc2ccccc2)=C1OCc1ccccc1 (stereo not given) | 50.1 µM
4 | O=C1OC(C(O)Cn2cc(F)c(=O)[nH]c2=O)C(OCc2ccccc2)=C1OCc1ccccc1 (stereo not given) | 140 µM
5 | O=c1[nH]c(=O)n([C@H]2C[C@H](O)[C@@H](CO)O2)cc1[N+](=O)[O-] | 0.13 µM
6 | CO[C@@H]1OC[C@@H](OC(C)=O)[C@@H](OC(C)=O)[C@]1(F)n1ccc(=O)[nH]c1=O | 55 µM
7 | Nc1nc2c(nc(I)n2COCCO)c(=O)[nH]1 | 111 µM
8 | C[C@H](O)C1CC(CCn2nnc3c(N)ncnc32)C1(C)C (stereo not given in full) | > 200 µM
9 | CC1=C(c2cn([C@H]3C[C@H](O)[C@@H](CO)O3)c(=O)[nH]c2=O)C(=O)c2ccccc2C1=O | 68.8 µM
10 | Nc1nc(N)c2ncn([C@H]3CCCC[C@H]3CO)c2n1 | > 200 µM
11 | CCOc1ncnc2c1ncn2C[C@@H]1C[C@H](CO)c2ccccc21 | > 200 µM
12 | Cc1ccc(S(=O)(=O)/C=C/[C@H]2O[C@@H](n3cnc4c(N)ncnc43)[C@@H](O)[C@H]2O)cc1 | 54 µM
13 | Nc1ncnc2c1ncn2[C@@H]1O[C@H](/C=C\Br)[C@H](O)[C@@H]1O | 104 µM
14 | Nc1ncnc2c1ncn2C[C@@H]1C[C@H](O)c2ccccc21 | > 200 µM
15 | CC(=O)OC(C)Cn1cnc2c(Cl)nc(I)nc21 (stereo not given) | 13 µM
16 | Nc1ncnc2c1nnn2[C@@H]1C[C@H](CO)[C@@H](CO)[C@H]1CO | > 200 µM
17 | C=Cc1cn([C@H]2C[C@H](O)[C@@H](CO)O2)c(=O)[nH]c1=O | 14.2 µM
18 | OC[C@H]1CCC[C@@H]1n1cnc2c(Cl)ncnc21 | > 200 µM
19 | CC(=O)OCCOCn1cnc2c(S)nc(F)nc21 | 40 µM
20 | C=C(Br)[C@H]1O[C@@H](n2cnc3c(N)ncnc32)[C@@H](O)[C@H]1O | 25 µM
21 | CCCNc1ncnc2c1ncn2C[C@@H]1C[C@H](CO)c2ccccc21 | > 200 µM
22 | C[C@H](O)C1CC(Cn2nnc3c(N)ncnc32)C1(C)C (stereo not given in full) | > 200 µM
23 | COc1ccccc1-c1ncnc2c1ncn2C[C@@H]1C[C@H](O)c2ccccc21 | > 200 µM
24 | Nc1ncnc2c1nnn2C1C[C@H](CO)[C@@H](CO)[C@@H]1CO (stereo not given in full) | > 200 µM
25 | O=C(CI)NCc1cn([C@H]2C[C@H](O)[C@@H](CO)O2)c(=O)[nH]c1=O | 107 µM
26 | [N-]=[N+]=NCc1cn([C@H]2C[C@H](O)[C@@H](CO)O2)c(=O)[nH]c1=O | 124 µM
27 | O=c1[nH]c(=O)n(C[C@@H]2C[C@H](O)c3ccccc32)cc1Br | > 200 µM

Row | SMILES | IC50
28 | CC(=O)OCCOCn1cnc2c(Cl)nc(I)nc21 | 8.6 µM
29 | OC[C@@H]1[C@@H]2COC[C@H]2C[C@H]1n1cnc2c(Cl)ncnc21 | > 200 µM
30 | N#CSc1cn([C@H]2C[C@H](O)[C@@H](CO)O2)c(=O)[nH]c1=O | 78.9 µM
31 | CC1(C)[C@@H](CO)CC[C@@]1(C)Cn1nnc2c(N)ncnc21 | > 200 µM
32 | Oc1ncnc2c1ncn2C[C@@H]1C[C@H](O)c2ccccc21 | > 200 µM
33 | CC1=C(C)C(=O)C(c2cn([C@H]3C[C@H](O)[C@@H](CO)O3)c(=O)[nH]c2=O)=CC1=O | 112 µM
34 | CC(C)Nc1ncnc2c1ncn2C1C[C@@H](CO)[C@@H](CO)C1 (stereo not given in full) | > 200 µM
35 | Cc1ccc(-c2ncnc3c2ncn3C[C@@H]2C[C@H](CO)c3ccccc32)cc1 | 15.4 µM
36 | Nc1ncnc2c1ncn2[C@@H]1O[C@H](CO)[C@H](F)[C@@H]1O | 5.94 µM
37 | OC[C@@H]1C[C@H](Cn2cnc3c(NC4CCC4)ncnc32)c2c(-c3ccccc3)nnc(-c3ccccc3)c21 | 90.8 µM
38 | Cc1ccc(C(=O)/C=C/c2cc(=O)[nH]c(=O)n2COCCO)cc1 | 27.9 µM
39 | Nc1ccn([C@@H]2O[C@H](CO)[C@H](F)[C@@H]2O)c(=O)n1 | 159 µM
40 | Nc1ncnc2c1nnn2C[C@H]1CCC[C@H]1CO | > 200 µM
41 | COc1ccccc1C(=O)/C=C/c1cc(=O)[nH]c(=O)n1COCCO | 15.2 µM
42 | COc1ccc(C(=O)/C=C/c2cc(=O)[nH]c(=O)n2COCCO)cc1 | 33.5 µM
43 | O=C(/C=C/c1cc(=O)[nH]c(=O)n1COCCO)c1ccccc1 | 43.3 µM
44 | C#Cc1cn([C@H]2C[C@H](O)[C@@H](CO)O2)c(=O)[nH]c1=O | 0.36 µM
45 | CO[C@@H]1OC(n2cc(F)c(=O)[nH]c2=O)[C@H](OC(C)=O)[C@@H](OC(C)=O)[C@H]1F (stereo not given in full) | 34 µM
46 | C[C@H](O)C1CC(Cn2cnc3c(N)ncnc32)C1(C)C (stereo not given in full) | > 200 µM
47 | COc1ncnc2c1ncn2C[C@@H]1C[C@H](O)c2ccccc21 | > 200 µM
48 | Nc1nc(NC2CC2)c2ncn(CCOCP(=O)(O)O)c2n1 | 10.2 µM
49 | O=c1[nH]c(=O)n([C@H]2C[C@H](O)[C@@H](CO)O2)cc1/C=C/I | 63.9 µM
50 | CC(=O)OC(C)Cn1cnc2c(=S)[nH]c(N)nc21 (stereo not given) | 128 µM
51 | O=c1[nH]c(=O)n([C@H]2C[C@H](O)[C@@H](CO)O2)cc1/C=N/O | 15.5 µM
52 | CC1(C)[C@@H](Cn2cnc3c(O)nc(N)nc32)CC[C@@]1(C)CO | > 200 µM
53 | Nc1ncnc2c1ncn2C[C@@H]1C[C@H](CO)c2ccccc21 | > 200 µM
54 | COC1=C(OC)/C(=C/C(n2cnc3c(N)ncnc32)P(=O)(O)O)OC1=O (stereo not given) | 11.4 µM

Row | SMILES | IC50
55 | CC(=O)OCCOCn1cnc2c(Cl)ncnc21 | 163 µM
56 | COC1=C(OC)/C(=C/Cn2cnc3c(Cl)ncnc32)OC1=O | 14 µM
57 | O=C1O/C(=C\Cn2cc(F)c(=O)[nH]c2=O)C(OCc2ccccc2)=C1OCc1ccccc1 | 5.1 µM
58 | O=C1O/C(=C\Cn2cc(Br)c(=O)[nH]c2=O)C(OCc2ccccc2)=C1OCc1ccccc1 | 7.5 µM
59 | O=C1C(O)=C(O)O/C1=C\Cn1cc(F)c(=O)[nH]c1=O | 5.18 µM
60 | OCCOCn1cnc2c(S)nc(F)nc21 | 170 µM
61 | Nc1ncnc2c1ncn2[C@H]1C[C@@H](O)[C@@H](C=O)O1 | 26.6 µM
62 | Nc1ncnc2c1ncn2[C@@H]1O[C@H](/C=C\Cl)[C@H](O)[C@@H]1O | 143 µM
63 | O=C1OC(=CCn2cnc3c(-n4cccc4)ncnc32)C(OCc2ccccc2)=C1OCc1ccccc1 | 110 µM
64 | O=c1[nH]cnc2c1nnn2C1C[C@H](CO)[C@@H](CO)[C@@H]1CO (stereo not given in full) | > 200 µM
65 | Nc1nc(N)c2nnn([C@H]3CCCC[C@H]3CO)c2n1 | > 200 µM
66 | CC1(C)[C@@H](Cn2cnc3c(N)nc(N)nc32)CC[C@@]1(C)CO | > 200 µM
67 | CC1=C(C)C(=O)C(c2cn([C@H]3C[C@H](O)[C@@H](CO)O3)c(=O)[nH]c2=O)=C(C)C1=O | 174 µM
68 | CC(=O)OC(C)Cn1cnc2c(Cl)nc(F)nc21 (stereo not given) | 37 µM
69 | COc1ncnc2c1ncn2C[C@@H]1C[C@H](CO)c2ccccc21 | > 200 µM
70 | CC1NC(=O)C(F)=CN1[C@@H]1O[C@H](COP2OCCCO2)[C@@H](O)C1=O (stereo not given in full) | 0.75 µM
71 | O=C1NCN([C@@H]2O[C@H](COP3OCCC(O)O3)[C@@H](O)C2=O)C=C1F (stereo not given in full) | 0.84 µM
72 | COC1=C(OCc2ccc([N+](=O)[O-])cc2)C(=O)O/C1=C\Cn1cnc2c(Cl)ncnc21 | 13.6 µM
73 | C[C@H](O)C1CC(CCn2cnc3c(N)ncnc32)C1(C)C (stereo not given in full) | > 200 µM
74 | CCCCCC(=O)O[C@@H]1[C@H](OC(=O)CCCCC)CO[C@@H](OC)[C@@]1(F)n1ccc(=O)[nH]c1=O | 40 µM
75 | CC1(C)[C@@H](CO)CC[C@@]1(C)Cn1cnc2c(N)ncnc21 | > 200 µM
76 | CC(=O)OCCOCn1cnc2c(=S)[nH]c(N)nc21 | 3.2 µM
77 | OC[C@@H]1CC(n2cnc3c(NC4CC4)ncnc32)C[C@@H]1CO (stereo not given in full) | > 200 µM
78 | C#C[C@H]1O[C@@H](n2cnc3c(N)ncnc32)[C@@H](O)[C@H]1O | 1.2 µM
79 | O=c1[nH]c(=O)n([C@H]2C[C@H](O)[C@@H](CO)O2)cc1CO | 9.18 µM
80 | O=Cc1cn([C@H]2C[C@H](O)[C@@H](CO)O2)c(=O)[nH]c1=O | 1.07 µM
81 | CC(=O)OCCOCn1cnc2c(Cl)nc(Cl)nc21 | 39.3 µM

Row | SMILES | IC50
82 | Nc1ncnc2c1ncn2[C@@H]1C[C@@H]2COC[C@H]2[C@H]1CO | > 200 µM
83 | Nc1ncnc2c1ncn2[C@@H]1CCC[C@H]1CO | > 200 µM
84 | OC[C@@H]1C[C@H](Cn2cnc3c(Cl)ncnc32)c2c(-c3ccccc3)nnc(-c3ccccc3)c21 | > 200 µM
85 | OC[C@@H]1C[C@H](Cn2cnc3c(NC4CC4)ncnc32)c2c(-c3ccccc3)nnc(-c3ccccc3)c21 | > 200 µM
86 | Nc1ncnc2c1ncn2C1C[C@@H](CO)[C@@H](CO)C1 (stereo not given in full) | > 200 µM
87 | Nc1nc2c(ncn2[C@@H]2O[C@H](CO)[C@H](F)[C@@H]2O)c(=O)[nH]1 | 17.5 µM
88 | O=C1O/C(=C/Cn2cnc3ncnc(Cl)c32)C(OCc2ccccc2)=C1OCc1ccccc1 | 4.1 µM
89 | O[C@H]1C[C@@H](Cn2cnc3c(-c4ccccc4)ncnc32)c2ccccc21 | > 200 µM
90 | Nc1nc(Cl)c2ncn([C@H]3CCCC[C@H]3CO)c2n1 | > 200 µM
91 | O=C1NCN([C@@H]2O[C@H](COP3OCCC(F)(F)O3)[C@@H](O)C2=O)C=C1F (stereo not given in full) | 0.01 µM
92 | O=C1OC(C(O)Cn2ccc(=O)[nH]c2=O)C(OCc2ccccc2)=C1OCc1ccccc1 (stereo not given) | 157 µM
93 | CC1(C)[C@@H](Cn2ccc(=O)[nH]c2=O)CC[C@@]1(C)CO | > 200 µM
94 | O[C@H]1C[C@@H](Cn2cnc3c(Cl)ncnc32)c2ccccc21 | > 200 µM
95 | Nc1ncnc2c1ncn2C1CC(O)C(/C=N/O)O1 (stereo not given) | 17.4 µM
96 | OC[C@H]1C[C@@H](Cn2cnc3c(NC4CC4)ncnc32)c2ccccc21 | > 200 µM
97 | Nc1ncnc2c1ncn2[C@@H]1O[C@H](/C=C\I)[C@H](O)[C@@H]1O | 43 µM
98 | CC1(C)[C@@H](Cn2nnc3c(N)nc(N)nc32)CC[C@@]1(C)CO | > 200 µM
99 | COC1=C(OC)/C(=C/C(n2cnc3c(Cl)ncnc32)P(=O)(OC)OC)OC1=O (stereo not given) | 37.7 µM
100 | Cc1ccc(C(=O)/C=C/c2cc(O)nc(O)n2)cc1 | 182 µM
101 | O=C1O/C(=C\Cn2cc(Cl)c(=O)[nH]c2=O)C(OCc2ccccc2)=C1OCc1ccccc1 | 12.2 µM
102 | O=C1O/C(=C\Cn2cnc3c(Cl)ncnc32)C(OCc2ccccc2)=C1OCc1ccccc1 | 11.6 µM
103 | O=C1O/C(=C\Cn2cc(I)c(=O)[nH]c2=O)C(OCc2ccccc2)=C1OCc1ccccc1 | 7.5 µM
104 | O=C1O/C(=C\Cn2ccc(=O)[nH]c2=O)C(OCc2ccccc2)=C1OCc1ccccc1 | 12.9 µM
105 | O=C1O/C(=C\Cn2cc(C(F)(F)F)c(=O)[nH]c2=O)C(OCc2ccccc2)=C1OCc1ccccc1 | 2 µM
